Measurements taken from patent publication US10004732B2 (Novartis AG, priority 2014, dated 2018).

How the values were obtained:
PI 3-kinase alpha [1] = target: T1, PI 3-kinase alpha (Homo sapiens, UniProt P42336); assay: Cellular assay H2, p-AKT (Ser473) in Rat-1 cells, HTRF format; format: cell-based; conditions: asterisked data: version H2 (HTRF format), read-out: Assay H PI3Kα IC50
Target sequence in this assay (P42336 whole entry): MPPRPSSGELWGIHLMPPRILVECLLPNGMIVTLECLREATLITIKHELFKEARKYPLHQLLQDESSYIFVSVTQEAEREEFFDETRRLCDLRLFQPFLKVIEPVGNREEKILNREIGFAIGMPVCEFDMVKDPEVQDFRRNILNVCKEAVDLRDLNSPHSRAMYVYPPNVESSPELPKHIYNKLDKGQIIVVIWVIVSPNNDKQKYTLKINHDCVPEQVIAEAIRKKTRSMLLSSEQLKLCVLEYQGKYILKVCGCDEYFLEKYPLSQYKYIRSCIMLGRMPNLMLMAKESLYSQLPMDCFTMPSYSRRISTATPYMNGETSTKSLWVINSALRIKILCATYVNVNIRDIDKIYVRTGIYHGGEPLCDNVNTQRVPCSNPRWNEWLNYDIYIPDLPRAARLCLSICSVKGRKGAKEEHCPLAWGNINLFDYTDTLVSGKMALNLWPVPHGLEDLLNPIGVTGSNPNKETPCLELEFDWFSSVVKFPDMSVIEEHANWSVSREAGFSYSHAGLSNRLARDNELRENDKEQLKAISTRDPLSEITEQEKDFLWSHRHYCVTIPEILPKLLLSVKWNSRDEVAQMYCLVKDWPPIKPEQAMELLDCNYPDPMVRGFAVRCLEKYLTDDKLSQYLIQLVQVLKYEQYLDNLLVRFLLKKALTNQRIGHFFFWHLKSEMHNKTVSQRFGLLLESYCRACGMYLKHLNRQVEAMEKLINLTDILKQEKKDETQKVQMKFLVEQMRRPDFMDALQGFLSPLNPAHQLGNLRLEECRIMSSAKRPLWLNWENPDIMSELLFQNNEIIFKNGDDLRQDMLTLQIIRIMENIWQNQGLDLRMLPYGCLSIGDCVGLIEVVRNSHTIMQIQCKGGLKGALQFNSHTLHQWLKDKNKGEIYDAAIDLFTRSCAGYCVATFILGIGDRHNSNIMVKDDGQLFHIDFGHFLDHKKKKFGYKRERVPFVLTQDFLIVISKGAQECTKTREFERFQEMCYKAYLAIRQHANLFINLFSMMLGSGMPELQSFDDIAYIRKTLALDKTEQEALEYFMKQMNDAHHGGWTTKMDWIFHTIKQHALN
Target sequence in this assay (Q63787 whole entry partner): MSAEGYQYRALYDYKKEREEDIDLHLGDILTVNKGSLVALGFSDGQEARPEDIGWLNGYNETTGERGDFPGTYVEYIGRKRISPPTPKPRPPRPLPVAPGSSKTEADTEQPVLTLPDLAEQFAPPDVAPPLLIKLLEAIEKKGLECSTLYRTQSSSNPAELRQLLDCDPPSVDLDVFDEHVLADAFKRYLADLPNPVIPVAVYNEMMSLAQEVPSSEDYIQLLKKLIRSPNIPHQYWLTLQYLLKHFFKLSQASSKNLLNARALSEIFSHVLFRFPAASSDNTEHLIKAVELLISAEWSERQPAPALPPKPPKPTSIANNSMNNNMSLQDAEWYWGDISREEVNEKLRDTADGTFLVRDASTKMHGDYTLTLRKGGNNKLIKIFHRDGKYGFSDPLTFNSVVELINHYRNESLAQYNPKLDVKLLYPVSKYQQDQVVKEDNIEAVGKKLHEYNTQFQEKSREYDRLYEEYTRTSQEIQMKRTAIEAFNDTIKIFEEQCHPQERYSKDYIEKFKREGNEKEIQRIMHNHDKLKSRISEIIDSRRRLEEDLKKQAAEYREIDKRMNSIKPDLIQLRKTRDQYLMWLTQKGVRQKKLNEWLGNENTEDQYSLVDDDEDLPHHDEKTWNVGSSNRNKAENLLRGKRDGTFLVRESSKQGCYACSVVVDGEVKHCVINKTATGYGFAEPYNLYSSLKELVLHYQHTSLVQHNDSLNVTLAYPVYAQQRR
Method: Cellular Assays for PI 3-Kinase Alpha (H2), Beta (12) and Delta (J2): HTRF (Homogeneous Time Resolved Fluorescence) Format
All cell lines were cultivated in complete growth medium (DMEM high glucose GlutaMAX™ Pyruvate, 10% (v/v) fetal bovine serum, 0.1 mM MEM NEAA, 25 mM HEPES, puromycin 10 μg/mL, 100 U/ml Penicillin, 100 μg/ml Streptomycin) to 90% confluency at 37° C./5% CO2/90% humidity in a humidified CO2 incubator and were split twice a week.
Semi-automated preparation of cell lysates: For low (inhibited) controls, 0.9 mM NVP-BGT226-AF-1 in 90% (v/v) DMSO was added to the compound master plate. For compound testing, the cells were seeded at a density of 4000 (Rat-1_PI3Kdelta), 8000 (Rat-1_PI3Kalpha), or 6500 (Rat-1_PI3Kbeta) cells in 30 μl complete growth medium into cell culture treated 384-well plates and were grown at 37° C./5% CO2/90% humidity for 24 h. 10 μl of the compound predilutions were transferred to the cells.

PI 3-kinase alpha [2] = target: T1, PI 3-kinase alpha; assay: Kinase Glo Luminescent Kinase Assay (Kglo), assay A; format: biochemical; conditions: read-out: Assay A PI3Kα IC50
Target sequence in this assay (P42336 whole entry): as the sequence (P42336 whole entry) above

[3] = Microsomal clearance assay (M); conditions: intrinsic clearance in rat liver microsomes
Method: The experiments were performed in 96-well glass plates at 37° C. on an automated Tecan EVO platform. Test compounds at a concentration of 10 mM in pure DMSO were diluted 1:1000 in water to 10 μM. […] Reactions were initiated by the addition of 150 μL of a cofactor solution containing 2 mM NADPH.

PI 4-kinase beta = PI 4-kinase beta (Homo sapiens, UniProt Q9UBF8); assay: Kinase Glo Luminescent Kinase Assay (Kglo), assay D; format: biochemical; conditions: read-out: Assay D PI4Kβ IC50
PI 3-kinase gamma [4] = target: T2, PI 3-kinase gamma (Homo sapiens, UniProt P48736); assay: TR-FRET Adapta assay, assay E; format: biochemical; conditions: read-out: Assay E PI3Kγ IC50
Method: TR-FRET Adapta Assay for PI 3-Kinase Gamma (E), PI 3-Kinase Delta (F)
The TR-FRET Adapta™ Universal Kinase Assay Kit was purchased from Invitrogen Corporation (Carlsbad/CA, USA) (Cat. No. PV5099).
PIK3CD substrate phosphatidylinositol (PI) was obtained from Invitrogen (vesicules consisting of 2 mM phosphatidylinositol (PI) in 50 mM HEPES pH7.5; Cat. No. PV5371). PIK3CG substrate phosphatidylinositol-4,5-bisphosphate (PIP(4,5)2 was obtained from Invitrogen (PIP2:PS large unilamellar vesicules consisting of 1 mM PIP2: 19 mM PS in 50 mM HEPES pH7.5, 3 mM MgCl2, 1 mM EGTA; Cat. No. PV5100).
Time-Resolved Fluorescence Resonance Energy Transfer (TR-FRET) is a technology based on energy transfer between two adjacent dyes, from an excited electron in one dye (the donor) to an electron of an adjacent dye (the acceptor) through resonance, then released as a photon. This energy transfer is detected by an increase in the fluorescence emission of the acceptor, and a decrease in the fluorescence emission of the donor. TR-FRET assays for protein kinases use a long-lifetime lanthanide Terbium or Europium chelates as the donor species which overcome interference from compound autofluorescence or light scatter from precipitated compounds, by introducing a delay after excitation by a flashlamp excitation source. Results are often expressed as a ratio of the intensities of the acceptor and donor fluorophores. The ratiometric nature of such a value corrects for differences in assay volumes between wells, as well as corrects for quenching effects due to colored compounds. The Adapta™ assay can be divided into two phases: a kinase reaction phase and an ADP detection phase. In the kinase reaction phase, all kinase reaction components are added to the well and the reaction is allowed to incubate for a set period of time specific for each kinase. […] In the presence of an inhibitor, the amount of ADP formed by the kinase reaction is reduced, and the resulting intact antibody-tracer interaction maintains a high TR-FRET signal.
50 nL of compound dilutions were dispensed onto white 384-well small volume polystyrene plate. Then 5 μL of either PI 3-kinase gamma or PI 3-kinase delta and lipid substrate (PI or PIP2:PS) followed by 5 μL of ATP (final assay volume 10 μL) are incubated at RT. The standard reaction buffer for the Adapta™ TR-FRET assay contained 10 mM Tris-HCl pH 7.5, 3 mM MgCl2, 50 mM NaCl, 1 mM DTT, 0.05% CHAPS 3-[(3-cholamidopropyl)dimethylammonio]-1-propanesulfonate).
Data are analyzed using Excel fit software or Graphpad Prism. IC50 values were derived by fitting a sigmoidal dose-response curve to a plot of assay readout over inhibitor concentration. All fits were performed with the program XLfit4 (ID Business Solutions, Guildford, UK). […] All fits were performed with the program XLfit4 (ID Business Solutions, Guildford, UK).

Vps34 = Vps34 (Homo sapiens, UniProt Q8NEB9); assay: Kinase Glo Luminescent Kinase Assay (Kglo), assay C; format: biochemical; conditions: read-out: Assay C VPS34 IC50
PI 3-kinase beta [5] = target: T3, PI 3-kinase beta (Homo sapiens, UniProt P42338); assay: Cellular assay I1, p-Akt (S473) in Rat-1 cells, Surefire format; format: cell-based; conditions: non-asterisked data: version I1 (Surefire format), Rat-1 cells; read-out: Assay I PI3Kβ IC50
Target sequence in this assay (P42338 whole entry): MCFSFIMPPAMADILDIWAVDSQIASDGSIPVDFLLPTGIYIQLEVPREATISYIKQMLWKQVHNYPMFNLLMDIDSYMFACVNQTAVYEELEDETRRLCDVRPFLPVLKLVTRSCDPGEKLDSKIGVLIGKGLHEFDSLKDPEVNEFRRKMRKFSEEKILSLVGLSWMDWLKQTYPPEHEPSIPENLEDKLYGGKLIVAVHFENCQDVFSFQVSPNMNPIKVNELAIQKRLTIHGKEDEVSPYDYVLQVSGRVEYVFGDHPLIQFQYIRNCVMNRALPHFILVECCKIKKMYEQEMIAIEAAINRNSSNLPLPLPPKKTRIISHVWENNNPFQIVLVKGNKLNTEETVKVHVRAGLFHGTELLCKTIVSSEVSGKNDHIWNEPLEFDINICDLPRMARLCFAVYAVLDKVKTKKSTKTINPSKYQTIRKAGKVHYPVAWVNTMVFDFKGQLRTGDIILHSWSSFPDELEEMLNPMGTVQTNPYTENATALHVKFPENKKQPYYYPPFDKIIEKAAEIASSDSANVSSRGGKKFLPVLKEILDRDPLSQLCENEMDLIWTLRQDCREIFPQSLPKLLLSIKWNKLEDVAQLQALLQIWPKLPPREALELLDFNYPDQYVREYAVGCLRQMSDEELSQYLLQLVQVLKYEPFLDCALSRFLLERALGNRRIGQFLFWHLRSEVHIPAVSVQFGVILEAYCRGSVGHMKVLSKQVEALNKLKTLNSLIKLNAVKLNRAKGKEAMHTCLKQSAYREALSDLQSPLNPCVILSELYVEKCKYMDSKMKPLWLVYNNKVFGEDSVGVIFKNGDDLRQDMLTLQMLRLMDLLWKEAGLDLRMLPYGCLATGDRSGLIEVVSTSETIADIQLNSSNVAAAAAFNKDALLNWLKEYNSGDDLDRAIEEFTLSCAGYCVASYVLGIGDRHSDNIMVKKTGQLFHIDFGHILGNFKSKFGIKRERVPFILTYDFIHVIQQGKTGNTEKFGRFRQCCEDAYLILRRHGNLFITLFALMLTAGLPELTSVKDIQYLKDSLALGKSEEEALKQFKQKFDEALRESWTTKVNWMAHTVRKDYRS
Target sequence in this assay (Q63787 whole entry partner): as the sequence (Q63787 whole entry partner) above

PI 3-kinase delta [6] = target: T4, PI 3-kinase delta (Homo sapiens, UniProt O00329); assay: TR-FRET Adapta assay, assay F
Target sequence in this assay (O00329 whole entry): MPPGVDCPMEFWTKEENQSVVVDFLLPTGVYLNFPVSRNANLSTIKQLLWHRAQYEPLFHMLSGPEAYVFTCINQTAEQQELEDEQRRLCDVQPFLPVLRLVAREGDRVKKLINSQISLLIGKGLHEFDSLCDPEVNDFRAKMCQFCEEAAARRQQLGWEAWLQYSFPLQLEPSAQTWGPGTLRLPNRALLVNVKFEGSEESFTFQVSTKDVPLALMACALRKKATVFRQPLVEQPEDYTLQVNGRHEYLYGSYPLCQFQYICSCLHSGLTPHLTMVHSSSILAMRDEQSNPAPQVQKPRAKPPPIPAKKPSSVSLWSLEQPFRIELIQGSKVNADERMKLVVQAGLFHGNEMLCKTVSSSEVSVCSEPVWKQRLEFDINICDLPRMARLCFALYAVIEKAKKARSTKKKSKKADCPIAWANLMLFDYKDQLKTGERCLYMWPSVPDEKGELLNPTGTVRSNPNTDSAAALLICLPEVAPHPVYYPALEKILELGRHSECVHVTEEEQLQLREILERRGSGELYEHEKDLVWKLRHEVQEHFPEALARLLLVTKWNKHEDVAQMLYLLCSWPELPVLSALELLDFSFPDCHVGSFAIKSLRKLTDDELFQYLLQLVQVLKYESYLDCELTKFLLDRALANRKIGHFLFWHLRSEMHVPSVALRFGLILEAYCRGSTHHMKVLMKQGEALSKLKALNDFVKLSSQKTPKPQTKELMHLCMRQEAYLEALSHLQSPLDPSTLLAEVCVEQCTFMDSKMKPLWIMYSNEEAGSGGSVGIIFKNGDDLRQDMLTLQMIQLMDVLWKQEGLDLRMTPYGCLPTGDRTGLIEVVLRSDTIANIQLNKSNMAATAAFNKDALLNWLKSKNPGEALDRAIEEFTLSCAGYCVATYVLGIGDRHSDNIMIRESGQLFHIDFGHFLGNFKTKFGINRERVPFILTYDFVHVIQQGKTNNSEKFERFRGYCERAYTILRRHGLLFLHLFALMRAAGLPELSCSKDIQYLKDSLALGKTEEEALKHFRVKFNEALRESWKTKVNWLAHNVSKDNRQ
Target sequence in this assay (P27986 461-568 partner): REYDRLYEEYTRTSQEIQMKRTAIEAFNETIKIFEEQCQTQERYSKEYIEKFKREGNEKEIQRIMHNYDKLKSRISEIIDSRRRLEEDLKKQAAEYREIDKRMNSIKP

PI 3-kinase delta [7] = target: T4, PI 3-kinase delta; assay: Cellular assay J1, p-Akt (S473) in Rat-1 cells, Surefire format; format: cell-based; conditions: non-asterisked data: version J1 (Surefire format), Rat-1 cells; read-out: Assay J PI3Kδ IC50
Target sequence in this assay (O00329 whole entry): as the sequence (O00329 whole entry) above
Target sequence in this assay (Q63787 whole entry partner): as the sequence (Q63787 whole entry partner) above

[8] = system: IL-8-induced neutrophil shape change in human whole blood; assay: Whole blood neutrophil shape change assay (L); format: cell-based; conditions: Homo sapiens, Neutrophil, IL-8, human whole blood, read-out: Assay L WBSC IC50
PI 3-kinase gamma [9] = target: T2, PI 3-kinase gamma; assay: Cellular U937 AKT assay K2 (HTRF); format: cell-based; conditions: U937 cells, K2 format; read-out: Assay K2 PI3Kγ IC50
Method: In assays K1 and K2, the compounds were tested for their ability to inhibit the production of phosphorylated AKT (Protein Kinase B) generated in a PI 3-kinase gamma isoform-dependent process in a U937 human cell line.
Cellular U937 AKT Assay for PI 3-Kinase Gamma (K2)
U937 cells are split every 3-4 days: 5×10^6 cells/flask (175 cm^2) in 40 ml.
Semi-automated preparation of cell lysates: Cells were resuspended in HBSS, seeded (200′000 cells/well/60 μl) into a 384-well plate and incubated in a humidified 37° C., 5% CO2 incubator for 1.5 hours. The compounds were diluted with HBSS and 40 μl were added to the starved cells (except for wells 24 I-P). […] The cells were then incubated for 30 minutes at 37° C. and 5% CO2. Stimulation occurred during 3 minutes by addition of 20 μl MIP1α (final 10 ng/ml, diluted in HBSS) in the incubator. Wells 24 A-H were only stimulated with HBSS.
The stimulation was then stopped by putting the cell plates on ice (filled with cold water). The cells were then centrifuged at 1200 rpm and 4° C. for 3 minutes.
80 μl of supernatant was removed. The cells were again centrifuged at 1200 rpm and 4° C. for 3 minutes. The supernatant was then removed by turning plates upside down and 30 μl of lysis buffer were added. The plate was incubated at room temperature for 30 minutes under shaking. 16 μl were then transferred to a ProxiPlate Plus 384-well. 4 μl of the master mix (each conjugate diluted 1:20 with detection reagent) were added to each well and the plate was kept in the dark at room temperature for 4 hours.

PI 3-kinase gamma [10] = target: T2, PI 3-kinase gamma; assay: Cellular U937 AKT assay K1 (MSD); format: cell-based; conditions: U937 cells, K1 format; read-out: Assay K1 PI3Kγ IC50
PI 3-kinase beta [11] = target: T3, PI 3-kinase beta; assay: Kinase Glo Luminescent Kinase Assay (Kglo), assay B; format: biochemical; conditions: read-out: Assay B PI3Kβ IC50
Target sequence in this assay (P42338 whole entry): as the sequence (P42338 whole entry) above
Target sequence in this assay (P27986 461-568 partner): as the sequence (P27986 461-568 partner) above

mTOR = mTOR (Homo sapiens, UniProt P42345); assay: Lanthascreen kinase binding assay, assay G; conditions: read-out: Assay G mTOR IC50
Method: Lanthascreen™ Kinase Binding Assay for mTOR (G)
Binding of an inhibitor to the kinase competes for binding with the tracer, resulting in a loss of FRET.
50 nL of compound dilutions were dispensed onto white 384-well small volume polystyrene plate.

PI 3-kinase alpha [12] = target: T1, PI 3-kinase alpha; assay: Cellular assay H1, p-Akt (S473) in Rat-1 cells, Surefire format; format: cell-based; conditions: non-asterisked data: version H1 (Surefire format), Rat-1 cells; read-out: Assay H PI3Kα IC50
Target sequence in this assay (P42336 whole entry): as the sequence (P42336 whole entry) above
Target sequence in this assay (Q63787 whole entry partner): as the sequence (Q63787 whole entry partner) above

Row | SMILES | IC50 (PI 3-kinase alpha [1]) [nM] | IC50 (PI 3-kinase alpha [2]) [nM] | Assay M RLM CI(int) [3] [µL/min/mg] | IC50 (PI 4-kinase beta) [nM] | IC50 (PI 3-kinase gamma [4]) [nM] | IC50 (Vps34) [nM] | IC50 (PI 3-kinase beta [5]) [nM] | IC50 (PI 3-kinase delta [6]) [nM] | IC50 (PI 3-kinase delta [7]) [nM] | IC50 [8] [nM] | IC50 (PI 3-kinase gamma [9]) [nM] | IC50 (PI 3-kinase gamma [10]) [nM] | IC50 (PI 3-kinase beta [11]) [nM] | IC50 (mTOR) [nM] | IC50 (PI 3-kinase alpha [12]) [nM] | IC50 (PI 3-kinase delta [6]; read-out: Assay F PI3Kδ IC50) [nM]
1 | Cc1ncc(-c2nc(-c3cc(S(=O)(=O)NC[C@H]4CCCO4)ccc3C)cnc2N)s1 (single isomer, unassigned) [Example 45.6a, (R)-3-(5-Amino-6-(2-methylthiazol-5-yl)pyrazin-2-yl)-4-methyl-N-((tetrahydrofuran-2-yl)methyl)benzenesulfonamide or (S)-3-(5-Amino-6-(2-methylthiazol-5-yl)pyrazin-2-yl)-4-methyl-N-((tetrahydrofuran-2-yl)methyl)benzenesulfonamide] | 820 | 70 | 228 | 4100 | 9 | – | – | – | – | – | – | – | – | – | – | –
2 | Cc1ncc(-c2nc(-c3cc(S(=O)(=O)NC[C@H]4CCCO4)ccc3C)cnc2N)s1 (single isomer, unassigned) [Example 45.6b, (R)-3-(5-Amino-6-(2-methylthiazol-5-yl)pyrazin-2-yl)-4-methyl-N-((tetrahydrofuran-2-yl)methyl)benzenesulfonamide or (S)-3-(5-Amino-6-(2-methylthiazol-5-yl)pyrazin-2-yl)-4-methyl-N-((tetrahydrofuran-2-yl)methyl)benzenesulfonamide] | 1760 | 380 | 237 | > 10000 | 42 | – | – | – | – | – | – | – | – | – | – | –
3 | Cc1ncc(-c2nc(-c3cc(S(=O)(=O)NC[C@H]4C[C@@H](O)C4)ccc3C)cnc2N)s1 [Example 20a, cis-3-[5-Amino-6-(2-methyl-thiazol-5-yl)-pyrazin-2-yl]-N-(3-hydroxy-cyclobutylmethyl)-4-methyl-benzenesulfonamide] | – | 30 | 55 | 5280 | 7 | > 9100 | 1430 | 50 | 420 | 232 | 23 | 11 | 1060 | 1880 | 720 | –
4 | Cc1ncc(-c2nc(-c3cc(S(=O)(=O)NC[C@H]4C[C@H](O)C4)ccc3C)cnc2N)s1 [Example 20b, trans-3-[5-Amino-6-(2-methyl-thiazol-5-yl)-pyrazin-2-yl]-N-(3-hydroxy-cyclobutylmethyl)-4-methyl-benzenesulfonamide] | – | 50 | 30 | 4980 | 11 | 400 | 1730 | 50 | 610 | 106 | 24 | 14 | 880 | 3310 | 660 | –
5 | Cc1ccc(S(=O)(=O)NCC(C)(C)O)cc1-c1cnc(N)c(-c2cnc(C3CC3)s2)n1 [Example 21, 3-[5-Amino-6-(2-cyclopropyl-thiazol-5-yl)-pyrazin-2-yl]-N-(2-hydroxy-2-methyl-propyl)-4-methyl-benzenesulfonamide] | – | 40 | 109 | 1500 | 6 | 1400 | 590 | – | 460 | 244 | 90 | 18 | 150 | 690 | 510 | 80
6 | Cc1ccc(S(=O)(=O)N[C@H]2CC[C@H](O)CC2)cc1-c1cnc(N)c(-c2cccnc2)n1 [Example 22, Trans-3-(5-Amino-6-pyridin-3-yl-pyrazin-2-yl)-N-(4-hydroxy-cyclohexyl)-4-methyl benzenesulfonamide] | – | 760 | 47 | 7080 | 44 | > 9100 | > 10000 | – | 4690 | 256 | 100 | 164 | 5710 | 8020 | 6670 | 420
7 | Cc1ncn(-c2nc(-c3cc(S(=O)(=O)NCC(C)(C)O)ccc3C)cnc2N)n1 [Example 25, 3-[5-Amino-6-(3-methyl-[1,2,4]triazol-1-yl)-pyrazin-2-yl]-N-(2-hydroxy-2-methyl-propyl)-4-methyl-benzenesulfonamide] | – | 620 | 71 | > 10000 | 79 | > 10000 | 1700 | – | 1390 | 742 | 2340 | 153 | 3150 | 210 | 2190 | 1030
8 | Cc1ccc(S(=O)(=O)NCC2(C)COC2)cc1-c1cnc(N)c(-n2cncn2)n1 [Example 29, 3-(5-Amino-6-[1,2,4]triazol-1-yl-pyrazin-2-yl)-4-methyl-N-(3-methyl-oxetan-3-ylmethyl)-benzenesulfonamide] | – | 1300 | 62 | 5200 | 9 | > 9100 | 8080 | – | 6610 | 956 | 314 | 206 | 6800 | > 9100 | 4630 | 910
9 | CCONS(=O)(=O)c1ccc(C)c(-c2cnc(N)c(-n3cncn3)n2)c1 [Example 112, 3-(5-Amino-6-(1H-1,2,4-triazol-1-yl)pyrazin-2-yl)-N-ethoxy-4-methylbenzenesulfonamide] | – | 860 | 62 | 3150 | 19 | > 10000 | 1140 | – | 310 | 586 | 172 | 95 | 3300 | 6300 | 790 | 500
10 | Cc1ncc(-c2nc(-c3cc(S(=O)(=O)NCCCO)c(F)cc3C)cnc2N)s1 [Example 113, 5-(5-Amino-6-(2-methylthiazol-5-yl)pyrazin-2-yl)-2-fluoro-N-(3-hydroxypropyl)-4-methylbenzenesulfonamide] | – | 50 | 39 | 1480 | 8 | 470 | 3570 | – | 1080 | 143 | 24 | 55 | 440 | 3450 | 1080 | 320
11 | Cc1cc(F)c(S(=O)(=O)NCC(C)(C)O)cc1-c1cnc(N)c(-n2cncn2)n1 [Example 122, 5-(5-Amino-6-(1H-1,2,4-triazol-1-yl)pyrazin-2-yl)-2-fluoro-N-(2-hydroxy-2-methylpropyl)-4-methylbenzenesulfonamide] | – | 490 | 26 | 1900 | 85 | > 10000 | 1490 | – | 1190 | 988 | 296 | 151 | 2200 | 6600 | 2280 | 1600
12 | Cc1ccc(S(=O)(=O)NCC2(O)CCCC2)cc1-c1cnc(N)c(-n2cncn2)n1 [Example 127.35] | – | 330 | 202 | 6300 | 50 | > 10000 | 2050 | – | > 10000 | 847 | 391 | 85 | 1100 | 7100 | > 10000 | 810
13 | Cc1ccc(S(=O)(=O)NC2CC2)cc1-c1cnc(N)c(-n2cncn2)n1 [Example 127.53] | – | 430 | 129 | 1700 | 25 | > 10000 | > 3000 | – | 6510 | 1860 | 198 | 172 | 1400 | 3900 | 650 | 1400
